Assay results as given in US8846909B2, “Bicyclic heteroaryl kinase inhibitors and methods of use” (University of Rochester, priority 2010, dated 2014).

Target: T1, MLK3 (Homo sapiens, UniProt Q16584)
T1 construct: purchased Dundee DU8313
Experiment: Radiometric filter plate MLK3 assay; note: 2 µM cold ATP (Km)
Type: biochemical
Settings: read-out: MK3 IC50
Protocol: After a twenty minute incubation, the reactions were washed through filter plates and read on a scintillation counter. Results are shown in Table 10 below, in which +++ indicates ≦0.1 μM, ++ indicates >0.1 μM and ≦1 μM, and + indicates >1 μM.

T1 sequence (Q16584 whole entry): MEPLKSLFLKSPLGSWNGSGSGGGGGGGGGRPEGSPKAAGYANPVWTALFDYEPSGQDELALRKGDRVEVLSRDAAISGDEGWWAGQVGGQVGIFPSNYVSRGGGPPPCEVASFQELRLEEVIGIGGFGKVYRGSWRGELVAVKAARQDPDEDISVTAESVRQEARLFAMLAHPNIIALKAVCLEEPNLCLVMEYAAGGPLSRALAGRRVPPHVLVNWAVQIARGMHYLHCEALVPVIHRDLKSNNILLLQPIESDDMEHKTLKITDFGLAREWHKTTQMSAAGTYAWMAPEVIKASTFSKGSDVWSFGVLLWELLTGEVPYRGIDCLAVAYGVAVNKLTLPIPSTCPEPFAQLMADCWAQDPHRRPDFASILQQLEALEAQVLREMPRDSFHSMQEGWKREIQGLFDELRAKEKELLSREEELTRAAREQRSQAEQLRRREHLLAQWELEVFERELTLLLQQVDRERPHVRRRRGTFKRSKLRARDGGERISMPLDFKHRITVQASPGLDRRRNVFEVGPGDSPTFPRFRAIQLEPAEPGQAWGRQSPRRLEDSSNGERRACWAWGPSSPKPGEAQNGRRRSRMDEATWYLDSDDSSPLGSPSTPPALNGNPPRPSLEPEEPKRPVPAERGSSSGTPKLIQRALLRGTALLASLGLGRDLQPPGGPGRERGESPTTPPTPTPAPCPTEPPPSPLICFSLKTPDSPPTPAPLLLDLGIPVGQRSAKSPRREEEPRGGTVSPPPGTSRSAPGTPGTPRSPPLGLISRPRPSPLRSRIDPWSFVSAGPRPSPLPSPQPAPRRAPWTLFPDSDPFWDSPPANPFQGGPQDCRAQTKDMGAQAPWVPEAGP

IC50 [µM] | SMILES
> 1 | COc1ccc(-n2c(=O)[nH]c3ncc(-c4ccncc4)nc32)cc1 [Example 71, 1-(4-methoxyphenyl)-6-(pyridin-4-yl)-1H-imidazo[4,5-b]pyrazin-2(3H)-one]
< 0.1 | COc1cc(-c2cnc3[nH]c(=O)n(-c4ccc5[nH]c(C)cc5c4)c3n2)cc(OC)c1OC [Example 72, 1-(2-methyl-1H-indol-5-yl)-6-(3,4,5-trimethoxyphenyl)-1H-imidazo[4,5-b]pyrazin-2(3H)-one]
> 1 | Cc1cc2cc(-n3c(=O)[nH]c4ncc(-c5cc(Cl)cc(Cl)c5)nc43)ccc2[nH]1 [Example 73, 6-(3,5-dichlorophenyl)-1-(2-methyl-1H-indol-5-yl)-1H-imidazo[4,5-b]pyrazin-2(3H)-one]
< 0.1 | COc1cc(-c2cnc3[nH]c(=O)n(C4CCCC4)c3n2)cc(OC)c1OC [Example 74, 1-cyclopentyl-6-(3,4,5-trimethoxyphenyl)-1H-imidazo[4,5-b]pyrazin-2(3H)-one]
> 1 | O=c1[nH]c2ncc(-c3ccncc3)nc2n1C1CCCC1 [Example 77, 1-cyclopentyl-6-(pyridin-4-yl)-1H-imidazo[4,5-b]pyrazin-2(3H)-one]
> 1 | O=c1[nH]c2ncc(-c3ccc(O)cc3)nc2n1CC1CC1 [Example 81, 1-(cyclopropylmethyl)-6-(4-hydroxyphenyl)-1H-imidazo[4,5-b]pyrazin-2(3H)-one]
> 1 | O=c1[nH]c2ncc(-c3ccncc3)nc2n1CC1CC1 [Example 82, 1-(cyclopropylmethyl)-6-(pyridin-4-yl)-1H-imidazo[4,5-b]pyrazin-2(3H)-one]
> 1 | Cc1cc2cc(-n3c(=O)[nH]c4ncc(-c5ccncc5)nc43)ccc2[nH]1 [Example 85, 1-(2-methyl-1H-indol-5-yl)-6-(pyridin-4-yl)-1H-imidazo[4,5-b]pyrazin-2(3H)-one]
> 1 | O=c1[nH]c2ncc(-c3ccc(N4CCOCC4)cc3)nc2n1CC1CC1 [Example 86, 1-(cyclopropylmethyl)-6-(4-morpholinophenyl)-1H-imidazo[4,5-b]pyrazin-2(3H)-one]
> 1 | COc1ccc(-c2cnc3[nH]c(=O)n(-c4ccc5[nH]ncc5c4)c3n2)cc1OC [Example 87, 6-(3,4-dimethoxyphenyl)-1-(1H-indazol-5-yl)-1H-imidazo[4,5-b]pyrazin-2(3H)-one]
> 1 | O=c1[nH]c2ncc(-c3ccncc3)nc2n1-c1ccc2[nH]ncc2c1 [Example 88, 1-(1H-indazol-5-yl)-6-(pyridin-4-yl)-1H-imidazo[4,5-b]pyrazin-2(3H)-one]
> 1 | COc1cc(OC)c(-c2cnc3[nH]c(=O)n(C4CCCC4)c3n2)c(OC)c1 [Example 94, 1-cyclopentyl-6-(2,4,6-trimethoxyphenyl)-1H-imidazo[4,5-b]pyrazin-2(3H)-one]
> 1 | Cc1cc(C)cc(-c2cnc3[nH]c(=O)n(-c4ccc5cn[nH]c5c4)c3n2)c1 [Example 95, 6-(3,5-dimethylphenyl)-1-(1H-indazol-6-yl)-1H-imidazo[4,5-b]pyrazin-2(3H)-one]
> 1 | Cc1cc(C)cc(-c2cnc3[nH]c(=O)n(-c4ccc5scnc5c4)c3n2)c1 [Example 99, 1-(benzo[d]thiazol-5-yl)-6-(3,5-dimethylphenyl)-1H-imidazo[4,5-b]pyrazin-2(3H)-one]
> 1 | O=c1[nH]c2ncc(-c3ccc(N4CCOCC4)cc3)nc2n1-c1ccc2scnc2c1 [Example 100, 1-(benzo[d]thiazol-5-yl)-6-(4-morpholinophenyl)-1H-imidazo[4,5-b]pyrazin-2(3H)-one]
> 1 | COc1cc(-c2cnc3[nH]c(=O)n(C4CCc5ccccc54)c3n2)cc(OC)c1OC (centres unmarked) [Example 101, 1-(2,3-dihydro-1H-inden-1-yl)-6-(3,4,5-trimethoxyphenyl)-1H-imidazo[4,5-b]pyrazin-2(3H)-one]
< 0.1 | COc1cc(-c2cnc3[nH]c(=O)n(-c4ccc5[nH]cnc5c4)c3n2)cc(OC)c1OC [Example 102, 1-(1H-benzo[d]imidazol-5-yl)-6-(3,4,5-trimethoxyphenyl)-1H-imidazo[4,5-b]pyrazin-2(3H)-one]
> 1 | Nc1ccc(-c2cnc3[nH]c(=O)n(C4CCCC4)c3n2)cn1 [Example 117, 6-(6-aminopyridin-3-yl)-1-cyclopentyl-1H-imidazo[4,5-b]pyrazin-2(3H)-one]
> 1 | COc1cc(-c2nc3c(nc2Cl)[nH]c(=O)n3CC2CC2)cc(OC)c1OC [Example 119, 5-chloro-1-(cyclopropylmethyl)-6-(3,4,5-trimethoxyphenyl)-1H-imidazo[4,5-b]pyrazin-2(3H)-one]
> 1 | COc1cc(-c2cnc3c(c2)C(=Cc2cccc(C(N)=O)c2)C(=O)N3)cc(OC)c1OC [Example 132, 3-[2-oxo-5-(3,4,5-trimethoxy-phenyl)-1,2-dihydro-pyrrolo[2,3-b]pyridin-3-ylidenemethyl]-benzamide]
> 1 | COc1cc(-c2cnc3c(c2)C(=Cc2ccc(C#N)cc2)C(=O)N3)cc(OC)c1OC [Example 133, 4-[2-oxo-5-(3,4,5-trimethoxy-phenyl)-1,2-dihydro-pyrrolo[2,3-b]pyridin-3-ylidenemethyl]-benzonitrile]
> 1 | COc1cc(-c2cnc3c(c2)C(Cc2cccnc2)C(=O)N3)cc(OC)c1OC (centres unmarked) [Example 135, 3-pyridin-3-ylmethyl-5-(3,4,5-trimethoxy-phenyl)-1,3-dihydro-pyrrolo[2,3-b]pyridin-2-one]
> 1 | COc1cc(-c2cnc3c(c2)C(Cc2ccccc2)C(=O)N3)cc(OC)c1OC (centres unmarked) [Example 137, 3-benzyl-5-(3,4,5-trimethoxy-phenyl)-1,3-dihydro-pyrrolo[2,3-b]pyridin-2-one]

Continued, compound first:

SMILES | IC50 [µM]
COc1ccc(-c2cnc3[nH]c(=O)n(C4CCCC4)c3n2)cc1OC [Example 75, 1-cyclopentyl-6-(3,4-dimethoxyphenyl)-1H-imidazo[4,5-b]pyrazin-2(3H)-one] | > 1
O=c1[nH]c2ncc(-c3cc(Cl)cc(Cl)c3)nc2n1CC1CC1 [Example 80, 1-(cyclopropylmethyl)-6-(3,5-dichlorophenyl)-1H-imidazo[4,5-b]pyrazin-2(3H)-one] | > 1
O=c1[nH]c2ncc(-c3ccc(N4CCOCC4)cc3)nc2n1-c1ccc2[nH]ncc2c1 [Example 89, 1-(1H-indazol-5-yl)-6-(4-morpholinophenyl)-1H-imidazo[4,5-b]pyrazin-2(3H)-one] | > 1
O=c1[nH]c2ncc(-c3ccc(O)cc3)nc2n1-c1ccc2cn[nH]c2c1 [Example 92, 6-(4-hydroxyphenyl)-1-(1H-indazol-6-yl)-1H-imidazo[4,5-b]pyrazin-2(3H)-one] | > 1
O=c1[nH]c2ncc(-c3ccncc3)nc2n1-c1ccc2scnc2c1 [Example 98, 1-(benzo[d]thiazol-5-yl)-6-(pyridin-4-yl)-1H-imidazo[4,5-b]pyrazin-2(3H)-one] | > 1
COc1cc(-c2cnc3[nH]c(=O)n(-c4ccc(N5CCOCC5)nc4)c3n2)cc(OC)c1OC [Example 109, 1-(6-morpholinopyridin-3-yl)-6-(3,4,5-trimethoxyphenyl)-1H-imidazo[4,5-b]pyrazin-2(3H)-one] | > 1
COc1cc(-c2cnc3[nH]c(=O)n(C4Cc5ccccc5C4)c3n2)cc(OC)c1OC [Example 110, 1-(2,3-dihydro-1H-inden-2-yl)-6-(3,4,5-trimethoxyphenyl)-1H-imidazo[4,5-b]pyrazin-2(3H)-one] | < 0.1
COc1cc(-c2cnc3[nH]c(=O)n(-c4cnc5[nH]ccc5c4)c3n2)cc(OC)c1OC [Example 112, 1-(1H-pyrrolo[2,3-b]pyridin-5-yl)-6-(3,4,5-trimethoxyphenyl)-1H-imidazo[4,5-b]pyrazin-2(3H)-one] | < 0.1
COc1cc(-c2cnc3[nH]c(=O)n(-c4ccc5cc[nH]c5c4)c3n2)cc(OC)c1OC [Example 113, 1-(1H-indol-6-yl)-6-(3,4,5-trimethoxyphenyl)-1H-imidazo[4,5-b]pyrazin-2(3H)-one] | < 0.1
COc1cc(-c2cnc3c(c2)C(CC2CC2)(CC2CC2)C(=O)N3)cc(OC)c1OC [Example 122, 3,3-bis(cyclopropylmethyl)-5-(3,4,5-trimethoxyphenyl)-1H-pyrrolo[2,3-b]pyridin-2(3H)-one] | > 1
COc1cc(-c2cnc3c(c2)C(CC2CC2)C(=O)N3)cc(OC)c1OC (centres unmarked) [Example 123, 3-(cyclopropylmethyl)-5-(3,4,5-trimethoxyphenyl)-1H-pyrrolo[2,3-b]pyridin-2(3H)-one] | 0.1 to 1
COc1cc(-c2cnc3[nH]c(=O)n(-c4ccc5[nH]ccc5c4)c3c2)cc(OC)c1OC [Example 124, 1-(1H-indol-5-yl)-6-(3,4,5-trimethoxyphenyl)-1H-imidazo[4,5-b]pyridin-2(3H)-one] | 0.1 to 1
COc1cc(-c2cnc3[nH]c(=O)n(CC4CC4)c3c2)cc(OC)c1OC [Example 125, 1-(cyclopropylmethyl)-6-(3,4,5-trimethoxyphenyl)-1H-imidazo[4,5-b]pyridin-2(3H)-one] | > 1
COc1cc(-c2cnc3ncn(-c4ccc5[nH]ccc5c4)c3n2)cc(OC)c1OC [Example 126, 1-(1H-indol-5-yl)-6-(3,4,5-trimethoxyphenyl)-1H-imidazo[4,5-b]pyrazine] | > 1
COc1cc(-c2cnc3[nH]c(=S)n(CC4CC4)c3n2)cc(OC)c1OC [Example 127, 1-(cyclopropylmethyl)-6-(3,4,5-trimethoxyphenyl)-1H-imidazo[4,5-b]pyrazine-2(3H)-thione] | > 1
COc1cc(-c2cnc3c(c2)C(=Cc2ccccc2)C(=O)N3)cc(OC)c1OC [Example 130, 3-benzylidene-5-(3,4,5-trimethoxy-phenyl)-1,3-dihydro-pyrrolo[2,3-b]pyridin-2-one] | > 1
COc1cc(-c2cnc3c(c2)C(=Cc2ccc(C(N)=O)cc2)C(=O)N3)cc(OC)c1OC [Example 131, 4-[2-oxo-5-(3,4,5-trimethoxy-phenyl)-1,2-dihydro-pyrrolo[2,3-b]pyridin-3-ylidenemethyl]-benzamide] | 0.1 to 1
COc1cc(-c2cnc3c(c2)C(Cc2ccncc2)C(=O)N3)cc(OC)c1OC (centres unmarked) [Example 136, 3-pyridin-4-ylmethyl-5-(3,4,5-trimethoxy-phenyl)-1,3-dihydro-pyrrolo[2,3-b]pyridin-2-one] | > 1
